Data on three compounds can be found in US20220242879A1, “FUSED HETEROCYCLE DERIVATIVES” (Janssen Sciences Ireland Unlimited Company, priority 2019, published 2022).

In data set [1] the test system is HBV. In words: HBV replication inhibition assay (BDNA assay), HepG2.2.15 cells. It is filed as cell-based, Hepatitis B virus. The note with it: 6 days, HBV DNA in supernatant by branched DNA QuantiGene. As to the method: HBV replication inhibition by the disclosed compounds were determined in cells infected or transfected with HBV or cells with stably integrated HBV, such as HepG2.2.15 cells (Sells et al. 1987). In this example, HepG2.2.15 cells were maintained in cell culture medium containing 10% fetal bovine serum (FBS), Geneticin, L-glutamine, penicillin and streptomycin. HepG2.2.15 cells were seeded in 96-well plates at a density of 40,000 cells/well and were treated with serially diluted compounds at a final DMSO concentration of 0.5% either alone or in combination by adding drugs in a checker box format. […] HBV DNA was denatured by addition of 0.2 M NaOH and detected using a branched DNA (BDNA) QuantiGene assay kit according to manufacturer recommendation (Affymetrix). HBV DNA levels were also quantified using qPCR, based on amplification of encapsidated HBV DNA extraction with QuickExtraction Solution (Epicentre Biotechnologies) and amplification of HBV DNA using HBV specific PCR probes that can hybridize to HBV DNA and a fluorescently labeled probe for quantitation. In addition, cell viability of HepG2.2.15 cells incubated with test compounds alone or in combination was determined by using CellTitre-Glo reagent according to the manufacturer protocol (Promega). […]

Data set [2] relates to HBV. In words: Anti-HBV activity, HepG2.117 cell line, intracellular HBV DNA by real-time PCR. It is filed as cell-based, Hepatitis B virus. The note with it: mean value; HepG2.117 cells, 3 days of treatment, intracellular HBV DNA; read-out: HBV-AVE-HepG2.117 EC50. On the procedure: The anti HBV activity was measured using the HepG2.117 cell line, a stable, inducibly HBV producing cell line, which replicates HBV in the absence of doxicycline (Tet-off system). The HepG2 cell line is available from ATCC® under number HB-8065. Transfection of the HepG2 cell line can be as described in Sun and Nassal 2006 Journal of Hepatology 45 (2006) 636-645 “Stable HepG2- and Huh7-based human hepatoma cell lines for efficient regulated expression of infectious hepatitis B virus”.
For the antiviral assay, HBV replication was induced, followed by a treatment with serially diluted compound in 96-well plates. After 3 days of treatment, the antiviral activity was determined by, quantification of intracellular HBV DNA using real-time PCR and an HBV specific primer set and probe.

The test system of data set [3] is HepG2.117 cells. Briefly: Cytotoxicity, ATPlite Luminescence Assay. It is filed as cell-based, human. The note with it: mean value; cells incubated for 3 days, viability by ATPlite; read-out: TOX-HepC2.117 CC50. As to the method:
Cytotoxicity of the compounds was tested using HepG2 or HepG2.117 cells, incubated for 3 days in the presence of compounds. The viability of the cells was assessed using the PERKIN ELMER ATPlite Luminescence Assay System.”
For orientation: Cellular ATP, detected with luciferase, serves as a proxy for viable cell number.

Molecules are shown by their SMILES. Bounds are passed on as bounds.

A word on the EC50: it is the concentration at which the effect is half-maximal. Take `N#Cc1cc(NC(=O)N2CCc3nn4c(c3C2)-c2nocc2CC(COCC(F)F)C4)ccc1F` (single isomer, unassigned) [Example 5a, (5S*)-N-3-Cyano-4-fluorophenyl)-5-(2,2-difluoroethoxy)methyl)-5,6,9,10-tetrahydro-4H-isoxazolo[3,4-c]pyrido[4′,3′:3,4]pyrazolo[1,5-a]azepine-11(12H)-carboxamide]: the half-maximal effective concentration (EC50) in data set [1] turned out to be 82 nM.

Usually CC50 stands for the concentration giving 50% cytotoxicity. As to `CNC(=O)[C@@H]1Cc2conc2-c2c3c(nn2C1)C[C@@H](C)N(C(=O)c1ccc(Cl)c(Cl)c1)C3` (single isomer, unassigned) [Compound 47], the EC50 in data set [2] was found to be 265 nM. The CC50 in data set [3] was > 50000 nM.

For the compound `N#Cc1cc(NC(=O)N2CCc3nn4c(c3C2)-c2nocc2CC(COCC(F)F)C4)ccc1F` (single isomer, unassigned) [Example 7a, (5R*)-N-(3-Cyano-4-fluorophenyl)-5-((2,2-difluoroethoxy)methyl)-5,6,9,10-tetrahydro-4H-isoxazolo[3,4-c]pyrido[4′,3′:3,4]pyrazolo[1,5-a]azepine-11(12H)-carboxamide], the EC50 in data set [1] stood at 21 nM.
